Test results: patent US4096174A, “Anionic naphthalene thioureido-diphenyloxides” (American Cyanamid Company, priority 1977, dated 1978)
Structures can show the parent of a compound that is named as a salt.

Tests used:
[1] = system: late components of human complement (C3-C9); assay: Test, Code 035 (C3-C9 inhibitor), lysis of EAC 142; format: biochemical; details: two-fold serial dilution assay; higher well number indicates higher activity
Source text: An active inhibitor protects C2 from C1 and C4; (ii) Test, Code 035 (C3-C9 inhibitor) - This test determines the ability of the late components of human complement (C3-C9) to lyse EAC 142 in the presence of appropriate dilutions of the test compound. An active inhibitor protects EAC 142 from lysis by human C3-C9; (iii) Test, Code 036 (C-Shunt inhibitor) - In this test human erythrocytes rendered fragile are lysed in autologous serum via the shunt pathway activated by cobra venom factor in the presence of appropriate dilutions of the test compound. Inhibition of the shunt pathway results in failure of lysis; (iv) Forssman Vasculitis Test - Here, the well known complement dependent lesion, Forssman Vasculitis, is produced in guinea pigs by intradermal injection of rabbit anti-Forssman antiserum. […]

whole complement = assay: Complement Level Reduction Test (in vivo, capillary tube assay of serum); design: species or system guinea pig; details: 200 mg/kg

O=S(=O)(O)c1cc(NC(=S)Nc2ccc(Oc3ccc(NC(=S)Nc4cc(S(=O)(=O)O)cc5cc(S(=O)(=O)O)cc(S(=O)(=O)O)c45)c(NC(=S)Nc4cc(S(=O)(=O)O)cc5cc(S(=O)(=O)O)cc(S(=O)(=O)O)c45)c3)cc2NC(=S)Nc2cc(S(=O)(=O)O)cc3cc(S(=O)(=O)O)cc(S(=O)(=O)O)c23)c2c(S(=O)(=O)O)cc(S(=O)(=O)O)cc2c1 [8,8',8",8'"-{Oxybis[4,1,2-phenylbis(2-thioureylene)]}-tetra-1,3,6-naphthalenetrisulfonic acid dodecasodium salt]
C-Late 035 Wells [1]: +2 Wells
In Vivo Activity (Guinea Pig) % Inhibition (whole complement; Intraperitoneal, 30 minutes): -82%
In Vivo Activity (Guinea Pig) % Inhibition (whole complement; Intraperitoneal, 60 minutes): -88%
In Vivo Activity (Guinea Pig) % Inhibition (whole complement; Intraperitoneal, 120 minutes): -94%
In Vivo Activity (Guinea Pig) % Inhibition (whole complement; Intravenous, 2 minutes): -98%
In Vivo Activity (Guinea Pig) % Inhibition (whole complement; Intravenous, 30 minutes): -95%
In Vivo Activity (Guinea Pig) % Inhibition (whole complement; Intravenous, 120 minutes): -91%
